Results from patent publication US20250275540A1, “USE OF PROTOPORPHYRINOGEN OXIDASE” (BEIJING DABEINONG BIOTECHNOLOGY CO., LTD., priority 2022, published 2025).

Tested on: transgenic Arabidopsis thaliana T1 plants
Assay: Detection of the herbicide tolerance of the transgenic Arabidopsis thaliana plants
Assay type: in vivo
Details: for The grade of pesticide damage/plant: 0 / The grade of pesticide damage/plant: 1 / The grade of pesticide damage/plant: 2 / The grade of pesticide damage/plant: 3: 7 DAT
From the text: The transformed Arabidopsis thaliana T1 plants were initially selected using glufosinate herbicide. The Arabidopsis thaliana T1 plants (PPOA-01) into which the PPOA-01 nucleotide sequence was introduced, the Arabidopsis thaliana T1 plants (PPOB-01) into which the PPOB-01 nucleotide sequence was introduced, the Arabidopsis thaliana T1 plants (PPOC-01) into which the PPOC-01 nucleotide sequence was introduced, the Arabidopsis thaliana T1 plants (PPOD-01) into which the PPOD-01 nucleotide sequence was introduced, the Arabidopsis thaliana T1 plants (PPOE-01) into which the PPOE-01 nucleotide sequence was introduced, the Arabidopsis thaliana T1 plants (PPOF-01) into which the PPOF-01 nucleotide sequence was introduced, the Arabidopsis thaliana T1 plants (PPO-AP-01) into which the PPO-AP-01 nucleotide sequence was introduced, and the Arabidopsis thaliana T1 plants (control vector) into which the control vector was introduced, the wild-type Arabidopsis thaliana plants (CK) (with 24 plants being included in each genotype) (18 days after sowing) were sprayed with saflufenacil at three concentrations (25 g ai/ha (one-fold field concentration, 1×), 100 g ai/ha (four-fold field concentration, 4×), and 0 g ai/ha (water, 0×)), oxyfluorfen at three concentrations (180 g ai/ha (one-fold field concentration, 1×), 720 g ai/ha (four-fold field concentration, 4×), and 0 g ai/ha (water, 0×)), and flumioxazin at three concentrations (60 g ai/ha (one-fold field concentration, 1×), 240 g ai/ha (four-fold field concentration, 4×), and 0 g ai/ha (water, 0×) to determine the tolerance of Arabidopsis thaliana to the herbicides. After 7 days of spraying (7 DAT), the damage level of each plant caused by the herbicide was evaluated according to the average of the damage levels (%) of plants (the average of the damage levels (%) of plants=the injured leaf area/the total leaf area×100%), i.e., the grade of pesticide damage: grade 0 means that the growth status of plants is essentially consistent with those sprayed with the blank solvent (water); grade 1 means that the average of the damage levels of plants is less than 10%; grade 2 means that the average of the damage levels of plants is greater than 10%; and grade 3 means that the average of the damage levels of plants is 100%. The plants having a growth status falling within grades 0 and 1 are classified as highly resistant plants; those having a growth status falling within grade 2 are classified as poorly resistant plants; and those having a growth status falling within grade 3 are classified as non-resistant plants.

[1] = genotype Control vector, 25 g ai/ha
[2] = genotype Control vector, 100 g ai/ha
[3] = genotype PPO-AP-01, 100 g ai/ha

SMILES: CC(C)N(C)S(=O)(=O)NC(=O)c1cc(-n2c(=O)cc(C(F)(F)F)n(C)c2=O)c(F)cc1Cl [saflufenacil, N′-[2-chloro-4-fluoro-5-(3-methyl-2,6-dioxo-4-(trifluoromethyl)-3,6-dihydro-1 (2H)-pyrimidine)benzoyl]-N-isopropyl-N-methylsulfamide]
- effective dose distinguishing sensitive plants from plants having an average level of resistance (Arabidopsis thaliana): 25 g ai/ha
- The grade of pesticide damage/plant: 0 (genotype CK, 25 g ai/ha): 0 plant
- The grade of pesticide damage/plant: 1 (genotype CK, 25 g ai/ha): 0 plant
- The grade of pesticide damage/plant: 2 (genotype CK, 25 g ai/ha): 0 plant
- The grade of pesticide damage/plant: 3 (genotype CK, 25 g ai/ha): 24 plant
- The grade of pesticide damage/plant: 0 (genotype CK, 100 g ai/ha): 0 plant
- The grade of pesticide damage/plant: 1 (genotype CK, 100 g ai/ha): 0 plant
- The grade of pesticide damage/plant: 2 (genotype CK, 100 g ai/ha): 0 plant
- The grade of pesticide damage/plant: 3 (genotype CK, 100 g ai/ha): 24 plant
- The grade of pesticide damage/plant: 0 [1]: 0 plant
- The grade of pesticide damage/plant: 1 [1]: 0 plant
- The grade of pesticide damage/plant: 2 [1]: 0 plant
- The grade of pesticide damage/plant: 3 [1]: 24 plant
- The grade of pesticide damage/plant: 0 [2]: 0 plant
- The grade of pesticide damage/plant: 1 [2]: 0 plant
- The grade of pesticide damage/plant: 2 [2]: 0 plant
- The grade of pesticide damage/plant: 3 [2]: 24 plant
- The grade of pesticide damage/plant: 0 (genotype PPO-AP-01, 25 g ai/ha): 0 plant
- The grade of pesticide damage/plant: 1 (genotype PPO-AP-01, 25 g ai/ha): 0 plant
- The grade of pesticide damage/plant: 2 (genotype PPO-AP-01, 25 g ai/ha): 0 plant
- The grade of pesticide damage/plant: 3 (genotype PPO-AP-01, 25 g ai/ha): 24 plant
- The grade of pesticide damage/plant: 0 [3]: 0 plant
- The grade of pesticide damage/plant: 1 [3]: 0 plant
- The grade of pesticide damage/plant: 2 [3]: 0 plant
- The grade of pesticide damage/plant: 3 [3]: 24 plant
- tolerance to the herbicide (in words) (genotype PPO-AP-01, at different concentrations): no tolerance
- The grade of pesticide damage/plant: 0 (genotype PPOA-01, 25 g ai/ha): 24 plant
- The grade of pesticide damage/plant: 1 (genotype PPOA-01, 25 g ai/ha): 0 plant
- The grade of pesticide damage/plant: 2 (genotype PPOA-01, 25 g ai/ha): 0 plant
- The grade of pesticide damage/plant: 3 (genotype PPOA-01, 25 g ai/ha): 0 plant
- The grade of pesticide damage/plant: 0 (genotype PPOA-01, 100 g ai/ha): 0 plant
- The grade of pesticide damage/plant: 1 (genotype PPOA-01, 100 g ai/ha): 24 plant
- The grade of pesticide damage/plant: 2 (genotype PPOA-01, 100 g ai/ha): 0 plant
- The grade of pesticide damage/plant: 3 (genotype PPOA-01, 100 g ai/ha): 0 plant
- The grade of pesticide damage/plant: 0 (genotype PPOB-01, 25 g ai/ha): 24 plant
- The grade of pesticide damage/plant: 1 (genotype PPOB-01, 25 g ai/ha): 0 plant
- The grade of pesticide damage/plant: 2 (genotype PPOB-01, 25 g ai/ha): 0 plant
- The grade of pesticide damage/plant: 3 (genotype PPOB-01, 25 g ai/ha): 0 plant
- The grade of pesticide damage/plant: 0 (genotype PPOB-01, 100 g ai/ha): 0 plant
- The grade of pesticide damage/plant: 1 (genotype PPOB-01, 100 g ai/ha): 24 plant
- The grade of pesticide damage/plant: 2 (genotype PPOB-01, 100 g ai/ha): 0 plant
- The grade of pesticide damage/plant: 3 (genotype PPOB-01, 100 g ai/ha): 0 plant
- The grade of pesticide damage/plant: 0 (genotype PPOC-01, 25 g ai/ha): 24 plant
- The grade of pesticide damage/plant: 1 (genotype PPOC-01, 25 g ai/ha): 0 plant
- The grade of pesticide damage/plant: 2 (genotype PPOC-01, 25 g ai/ha): 0 plant
- The grade of pesticide damage/plant: 3 (genotype PPOC-01, 25 g ai/ha): 0 plant
- The grade of pesticide damage/plant: 0 (genotype PPOC-01, 100 g ai/ha): 0 plant
- The grade of pesticide damage/plant: 1 (genotype PPOC-01, 100 g ai/ha): 24 plant
- The grade of pesticide damage/plant: 2 (genotype PPOC-01, 100 g ai/ha): 0 plant
- The grade of pesticide damage/plant: 3 (genotype PPOC-01, 100 g ai/ha): 0 plant
- The grade of pesticide damage/plant: 0 (genotype PPOD-01, 25 g ai/ha): 24 plant
- The grade of pesticide damage/plant: 1 (genotype PPOD-01, 25 g ai/ha): 0 plant
- The grade of pesticide damage/plant: 2 (genotype PPOD-01, 25 g ai/ha): 0 plant
- The grade of pesticide damage/plant: 3 (genotype PPOD-01, 25 g ai/ha): 0 plant
- The grade of pesticide damage/plant: 0 (genotype PPOD-01, 100 g ai/ha): 0 plant
- The grade of pesticide damage/plant: 1 (genotype PPOD-01, 100 g ai/ha): 24 plant
- The grade of pesticide damage/plant: 2 (genotype PPOD-01, 100 g ai/ha): 0 plant
- The grade of pesticide damage/plant: 3 (genotype PPOD-01, 100 g ai/ha): 0 plant
- The grade of pesticide damage/plant: 0 (genotype PPOE-01, 25 g ai/ha): 24 plant
- The grade of pesticide damage/plant: 1 (genotype PPOE-01, 25 g ai/ha): 0 plant
- The grade of pesticide damage/plant: 2 (genotype PPOE-01, 25 g ai/ha): 0 plant
- The grade of pesticide damage/plant: 3 (genotype PPOE-01, 25 g ai/ha): 0 plant
- The grade of pesticide damage/plant: 0 (genotype PPOE-01, 100 g ai/ha): 0 plant
- The grade of pesticide damage/plant: 1 (genotype PPOE-01, 100 g ai/ha): 24 plant
- The grade of pesticide damage/plant: 2 (genotype PPOE-01, 100 g ai/ha): 0 plant
- The grade of pesticide damage/plant: 3 (genotype PPOE-01, 100 g ai/ha): 0 plant
- The grade of pesticide damage/plant: 0 (genotype PPOF-01, 25 g ai/ha): 24 plant
- The grade of pesticide damage/plant: 1 (genotype PPOF-01, 25 g ai/ha): 0 plant
- The grade of pesticide damage/plant: 2 (genotype PPOF-01, 25 g ai/ha): 0 plant
- The grade of pesticide damage/plant: 3 (genotype PPOF-01, 25 g ai/ha): 0 plant
- The grade of pesticide damage/plant: 0 (genotype PPOF-01, 100 g ai/ha): 0 plant
- The grade of pesticide damage/plant: 1 (genotype PPOF-01, 100 g ai/ha): 24 plant
- The grade of pesticide damage/plant: 2 (genotype PPOF-01, 100 g ai/ha): 0 plant
- The grade of pesticide damage/plant: 3 (genotype PPOF-01, 100 g ai/ha): 0 plant
- tolerance to the herbicide (in words) (genotypes PPOA-01 to PPOF-01, at different concentrations, compared with the control vector and CK): high-resistant tolerance
